# Measurements as given in US20220380331A1, “TREATMENT OF CONDITIONS OF THE NERVOUS SYSTEM” (priority 2019, published 2022).
# What was measured:
# [1] = system: rats; conditions: cited from earlier work
# [2] = system: mice; conditions: 6.8-12.8 g/kg in mice continuously for 6 months
# [3] = system: rats, mice and rabbits; conditions: very high doses; cited from earlier work
# [4] = system: perineuronal nets (PNNs) in the ventral horn; experiment: Chronic PNNi treatment, immunohistochemistry of PNNs in the ventral horn 12 weeks post-injury; format: in vivo, rat; conditions: T4-6 sections
# Method: FIG. 15. Chronic PNNi treatment preferentially reduces expression of perineuronal nets (PNNs), labelled by key PNN components, in the ventral horn (VH). Rat spinal cord sections (T4-6) obtained at 12 weeks post-injury were stained and intensity was analysed in the VH. […] A transcardial perfusion (Gage et al., 2012) was then performed using sodium phosphate buffer (PB; 0.12 M sodium phosphate monobasic; 0.1 M NaOH; pH 7.4) followed by 4% paraformaldehyde (PFA; in PB; pH 7.4) for tissue fixation. The brain and spinal cord were dissected out, post-fixed in PFA (4%; 4° C.) overnight and cryoprotected in 30% sucrose solution (30% v/w sucrose in PB; 4° C.) until tissue saturation. The left brain hemisphere and appropriate spinal cord segments were excised and frozen in optimum temperature medium (OCT; Leica FSC 22 Frozen Section Media; Leica Biosystems) before storage at -80° C. until sectioning. […] Total number of neurones and the number of neurones surrounded by PNNs were quantified by two independent researchers, blinded to the study. Results were analysed with one-way ANOVA for statistical significance. […] Rat spinal cord sections (T4-6) obtained at 12 weeks post-injury were stained and intensity was analysed in the VH.
# [5] = system: sensorimotor cortex (M1); experiment: Intracortical microstimulation (ICMS) mapping of HL and FL cortical movement representations; format: in vivo, rat
# Method: FIG. […]): Perineuronal net inhibitor (PNNi) induces reorganisation of the sensorimotor map (M1) in intact rats. Using intracortical microstimulation (ICMS), mapping of the HL and FL cortical movement representations were used to investigate the functional organisation of the M1 of intact/sham animals after long-term treatment with the prospective plasticity enhancer, […] was performed at stereotaxic coordinates within a right hemisphere craniotomy 5 mm rostral/caudal to bregma (B) (A) 11 weeks post mid-thoracic laminectomy (Sham) or for age-controlled intact rats. Individual ICMS maps were combined to give the representative heat map per group illustrating the percentage of animals for each stereotaxic coordinate where hindlimb (HL; B-D) or forelimb (FL; K-M) movements were able to be elicited. A baseline HL and FL cortical map was generated for Lister Hooded rats (B, K; dotted outlines in B-D, K-M) to compare the functional plasticity of groups with sham surgery (C, L) and with chronic PNNi administration (D, M). Measurements for HL analysis (F-G) are illustrated in E). H) Average area (mm^2) of the HL representation reduced with PNNi treatment. […] Measurements for FL analysis (P-S) are illustrated in O). After PNNi treatment, FL movements were elicited in areas that are not associated with FL or HL movements (see right of the baseline HL map; white dotted outline K-M). […]
compound,measurement,setting,value
"Cc1cc(=O)oc2cc(O)ccc12 [PNNi, 4-methylumbelliferone]",maximum tolerated dose,"[1]; oral, rats",6000 mg/kg
same,dose tolerated in rats,"[1]; rat, in vivo",at least 200 mg/kg/day
same,mortality in the chronic study,"[1]; rats, 200 mg/kg/day and 40 mg/kg/day for three months",No mortality was reported
same,lethality and adverse signs,[2],did not show any lethality
same,teratogenic effect,[3],does not seem to have a teratogenic effect
same,number of PNNs labelled by ACAN and WFA in the ventral horn,[4],partially decreases number of PNNs
same,percentage of FL movements associated with areas previously eliciting HL movements,"[5]; SCI plus long-term PNNi, sham control 4.27±1.56%",23.9±8.01%
same,total area able to elicit HL movements,"[5]; sham animals, long-term treatment",reduced the total area able to elicit HL movements
